Data on 10 compounds can be found in ChEMBL document CHEMBL4130622, “Retinoic Acid Receptor-Related Orphan Receptor γt (RORγt) Agonists as Potential Small Molecule Therapeutics for Cancer Immunotherapy” (J Med Chem, 2018).

Structures are written as SMILES.

The target of test [1] is T1, Nuclear receptor ROR-gamma (Homo sapiens, UniProt P51449).
T1 sequence (P51449 whole entry): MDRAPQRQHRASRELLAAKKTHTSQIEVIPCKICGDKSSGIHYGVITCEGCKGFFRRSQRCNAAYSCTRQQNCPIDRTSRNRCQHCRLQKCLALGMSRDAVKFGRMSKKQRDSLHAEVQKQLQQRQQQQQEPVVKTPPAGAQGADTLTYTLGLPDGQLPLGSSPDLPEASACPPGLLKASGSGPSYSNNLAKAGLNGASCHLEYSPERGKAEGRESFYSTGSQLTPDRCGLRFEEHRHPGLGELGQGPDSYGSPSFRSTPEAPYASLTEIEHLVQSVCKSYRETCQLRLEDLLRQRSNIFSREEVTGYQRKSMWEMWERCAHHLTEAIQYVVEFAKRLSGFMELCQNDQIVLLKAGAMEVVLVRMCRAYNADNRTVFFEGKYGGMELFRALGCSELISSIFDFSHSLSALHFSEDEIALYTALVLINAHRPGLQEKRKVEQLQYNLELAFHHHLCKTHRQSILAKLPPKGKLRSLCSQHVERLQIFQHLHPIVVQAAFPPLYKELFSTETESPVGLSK
Kind of test: Agonist activity at 6xHis tagged human RORgammat LBD (262 to 507 residues) expressed in Escherichia coli BL21 (DE3) assessed as biotinylated SRC1-2 peptide coactivator recruitment by AlphaScreen assay.

The target in test [2] is T2, Nuclear receptor ROR-gamma (Homo sapiens) (UniProt P51449).
T2 sequence (whole entry): T1 sequence (P51449 whole entry)
Kind of test: Agonist activity at His tagged human RORgammat LBD (unknown origin) expressed in baculovirus infected sf9 cells assessed as biotinylated-LXXLL peptide coactivator recruitment at <0.5 uM incubated for overnight by TR-FRET Assay relative to control.

The target in test [3] is T2, Nuclear receptor ROR-gamma (Homo sapiens). Kind of test: Agonist activity at Gal4-fused DBD RORgammat LBD (unknown origin) expressed in HEK293 cells assessed as coactivator recruitment at <0.5 uM incubated for overnight in presence of ursolic acid by luciferase reporter gene Assay relative to control. The format is cell-based. (In general: Reporter assays use an easily measured gene product as a stand-in for the process of interest.)

For test [4], the target named is T1, Nuclear receptor ROR-gamma. Kind of test: Agonist activity at Gal4-fused RORgammat DNA binding domain (unknown origin) expressed in 293T cells assessed as SRC1 coactivator recruitment in presence of ursolic acid by TR-FRET assay. The format is cell-based.
The target of test [5] is T1, Nuclear receptor ROR-gamma. Kind of test: Agonist activity at His tagged RORgammat LBD (unknown origin) expressed in baculovirus infected sf9 cells assessed as biotinylated-LXXLL peptide coactivator recruitment incubated for overnight by TR-FRET Assay.
The target in test [6] is T1, Nuclear receptor ROR-gamma. Kind of test: Agonist activity at Gal4-fused DBD RORgammat LBD (unknown origin) expressed in HEK293 cells assessed as coactivator recruitment incubated for overnight in presence of ursolic acid by luciferase reporter gene Assay. The format is cell-based.

As usually defined, the EC50 is the concentration at which the effect is half-maximal. As for `CC(C)CCC[C@@H](C)[C@H]1CC[C@H]2[C@@H]3CC=C4C[C@@H](O)CC[C@]4(C)[C@H]3CC[C@]12C` [CHOLESTEROL], in test [1], the EC50 came to 20 nM.

Turning to `CCN(c1cccc(OCc2c(Cl)cccc2Cl)c1)S(=O)(=O)c1cccc(C(F)(F)F)c1`, the Activity in test [2] and in test [3] was over 200% each time.

For the compound `CC(C)CC[C@@H](O)[C@@H](C)[C@H]1CC[C@H]2[C@@H]3CC=C4C[C@@H](O)CC[C@]4(C)[C@H]3CC[C@]12C` [22(R)-HYDROXYCHOLESTEROL], in test [1], the EC50 was in the range of 20 to 40 nM.

As for `CC(C)=CCC[C@@H](C)[C@H]1CC[C@H]2C3=C(CC[C@]12C)[C@@]1(C)CC[C@H](O)C[C@@H]1CC3`, the EC50 in test [4] amounted to 110 nM.

For `C/C(=C\c1ccc2c(c1)N(S(=O)(=O)c1cccc(C(F)(F)F)c1)C[C@H](CCc1nn[nH]n1)O2)c1c(F)cccc1Cl`, the Activity in test [2] and in test [3] was over 200% throughout.

In the case of `CC(C)=CCC[C@@H](C)[C@H]1CC[C@H]2[C@@H]3CC=C4C[C@@H](O)CC[C@]4(C)[C@H]3CC[C@]12C` [DESMOSTEROL], the EC50 in test [4] was 80 nM.

Consider `O=C(O)C1Cc2ccc(OCc3c(F)cccc3Cl)cc2N(S(=O)(=O)c2cccc(C(F)(F)F)c2)C1` (stereo not given), for which the Activity in test [2] and in test [3] was over 200% each time.

In the case of `COc1c(Cl)cccc1-c1ccc2c(c1)N(S(=O)(=O)c1cccc(C(F)(F)F)c1)C[C@H](CCC(=O)O)O2`, the Activity in test [2] and in test [3] was over 200% throughout.

Turning to `CC(C)CCC[C@@](C)(O)[C@H]1CC[C@H]2[C@@H]3CC=C4C[C@@H](O)CC[C@]4(C)[C@H]3CC[C@@]21C`, in test [1], the EC50 was in the range of 20 to 40 nM.

Turning to `C[C@H]1CN(S(=O)(=O)c2cccc(C(F)(F)F)c2)c2nc(COc3c(F)cccc3Cl)ccc2O1`, the EC50 in test [5] and in test [6] was under 500 nM throughout.
